# Several values for one entry are separate records, joined by “and”; a condition that tells them apart may be missing. Equal entries are not always repeated.
# Target: T1, FKBP12 and mTOR (Homo sapiens, UniProt P42345+P62942)
# T1 construct: host or cells: HeLa cells
# Experiment: Fluoppi analysis: induction of FKBP12-mTOR complex formation in transfected HeLa cells
# Assay type: cell-based
# Conditions: for Foci intensity: raw data, one replicate per line
# Outline: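 HeLa cells co-transfected with phAG-mTOR and pAsh-FKBP12, seeded 3000 cells/well, then compound-treated 1 h after 24 h at 37 °C. Fixed, Hoechst-stained, imaged by high-content microscopy; foci fluorescence normalized to total cell fluorescence, EC50 computed.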
# T1 sequence (P42345 2025-2114 limits assumed): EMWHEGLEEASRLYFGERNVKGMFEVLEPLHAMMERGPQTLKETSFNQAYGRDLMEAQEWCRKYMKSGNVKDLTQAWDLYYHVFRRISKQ
# T1 sequence (P62942 whole entry): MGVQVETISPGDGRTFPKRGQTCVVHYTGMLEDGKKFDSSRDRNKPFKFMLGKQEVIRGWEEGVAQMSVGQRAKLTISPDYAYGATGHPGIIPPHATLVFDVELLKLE
smiles,measurement,setting,value
"CO[C@@H]1C[C@H](C[C@@H](C)[C@@H]2CC(=O)[C@H](C)/C=C(\C)[C@@H](O)[C@@H](OC)C(=O)[C@H](C)C[C@H](C)/C=C/C=C/C=C(\C)[C@H](O)C[C@@H]3CC[C@@H](C)[C@@](O)(O3)C(=O)C(=O)N3CCCC[C@H]3C(=O)O2)CC[C@H]1O [Compound 17, (16R)-16-O-demethyl rapamycin]","PPI-inducing (binding enhancing) activity between FKBP12 and mTOR compared with rapamycin (1), in words",Fluoppi,relatively weaker activities
same,EC50,"Fluoppi, HeLa cells, 1 h treatment, three independent biological replicates, read-out: EC50, induction of the formation of FKBP-mTOR complex",58 nM
same,Foci intensity,conc 9.53674e-5 uM,0.008575 and 0.02543 and 0.01782
same,Foci intensity,conc 0.000190735 uM,0.01164 and 0.0145 and 0.01487
same,Foci intensity,conc 0.00038147 uM,0.01856 and 0.01046 and 0.003947
same,Foci intensity,conc 0.000762939 uM,0.01936 and 0.005776 and 0.02867
same,Foci intensity,conc 0.00152588 uM,0.005895 and 0.00599 and 0.02244
same,Foci intensity,conc 0.00305176 uM,0.01605 and 0.01212 and 0.008772
same,Foci intensity,conc 0.00610352 uM,0.0303 and 0.01224 and 0.02086
same,Foci intensity,conc 0.012207 uM,0.01472 and 0.01188 and 0.01532
same,Foci intensity,conc 0.0244141 uM,0.02138 and 0.01399 and 0.02345
same,Foci intensity,conc 0.0488281 uM,0.1099 and 0.1021 and 0.1573
same,Foci intensity,conc 0.0976562 uM,0.2733 and 0.3147 and 0.3434
same,Foci intensity,conc 0.195312 uM,0.354 and 0.3591 and 0.4502
same,Foci intensity,conc 0.390625 uM,0.4005 and 0.429 and 0.3736
same,Foci intensity,conc 0.78125 uM,0.395 and 0.3804 and 0.4169
same,Foci intensity,conc 1.5625 uM,0.3124 and 0.2927 and 0.3257
same,Foci intensity,conc 3.125 uM,0.3411 and 0.3385 and 0.2558
same,Foci intensity,conc 6.25 uM,0.3119 and 0.3692 and 0.3726
same,Foci intensity,conc 12.5 uM,0.3802 and 0.3948 and 0.3075
same,Foci intensity,conc 25 uM,0.3555 and 0.3578 and 0.2982
same,Foci intensity,conc 50 uM,0.2808 and 0.2653 and 0.2658
